Test results published in US8802711B2, “TRPV1 antagonists” (AbbVie Inc., priority 2011, dated 2014).
pIC50: −log10 of the molar value.

Key:
[1] = molecular target: T1, human TRPV1 receptor (hTRPV1) (Homo sapiens (Human), UniProt Q8NER1); test: Capsaicin activation assay (FLIPR intracellular Ca2+); assay type: cell-based; settings: Table 1; inhibition of capsaicin-induced intracellular Ca2+ increase, HEK293 cells expressing human TRPV1; read-out: hTRPV1 cap IC50
In short: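 HEK293 cells stably expressing human TRPV1, loaded with Calcium-4 dye 90–120 min at room temperature, preincubated 3 min with compound (12-point one-third-log range) before capsaicin (200 nM as 4× solution). Peak FLIPR fluorescence minus baseline expressed as percent of 50 nM capsaicin control response.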

[2] = molecular target: T1, human TRPV1 receptor (hTRPV1); test: Acid activation assay (pH 5.0, FLIPR intracellular Ca2+); assay type: cell-based; settings: Table 1; 37.5 μM antagonist, percentage of the maximal pH 5.0-induced response remaining; read-out: hTRPV1 H+ (max % remain)
In short: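 1321N1 astrocytoma cells stably expressing homomeric hTRPV1, loaded with Calcium-4 dye 90–120 min at 25 °C. Compounds, 12-point half-log range, added 3 min before pH 5.0 DPBS/MES challenge; intracellular Ca2+ read by FLIPR fluorescence.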

T1 sequence (Q8NER1 whole entry): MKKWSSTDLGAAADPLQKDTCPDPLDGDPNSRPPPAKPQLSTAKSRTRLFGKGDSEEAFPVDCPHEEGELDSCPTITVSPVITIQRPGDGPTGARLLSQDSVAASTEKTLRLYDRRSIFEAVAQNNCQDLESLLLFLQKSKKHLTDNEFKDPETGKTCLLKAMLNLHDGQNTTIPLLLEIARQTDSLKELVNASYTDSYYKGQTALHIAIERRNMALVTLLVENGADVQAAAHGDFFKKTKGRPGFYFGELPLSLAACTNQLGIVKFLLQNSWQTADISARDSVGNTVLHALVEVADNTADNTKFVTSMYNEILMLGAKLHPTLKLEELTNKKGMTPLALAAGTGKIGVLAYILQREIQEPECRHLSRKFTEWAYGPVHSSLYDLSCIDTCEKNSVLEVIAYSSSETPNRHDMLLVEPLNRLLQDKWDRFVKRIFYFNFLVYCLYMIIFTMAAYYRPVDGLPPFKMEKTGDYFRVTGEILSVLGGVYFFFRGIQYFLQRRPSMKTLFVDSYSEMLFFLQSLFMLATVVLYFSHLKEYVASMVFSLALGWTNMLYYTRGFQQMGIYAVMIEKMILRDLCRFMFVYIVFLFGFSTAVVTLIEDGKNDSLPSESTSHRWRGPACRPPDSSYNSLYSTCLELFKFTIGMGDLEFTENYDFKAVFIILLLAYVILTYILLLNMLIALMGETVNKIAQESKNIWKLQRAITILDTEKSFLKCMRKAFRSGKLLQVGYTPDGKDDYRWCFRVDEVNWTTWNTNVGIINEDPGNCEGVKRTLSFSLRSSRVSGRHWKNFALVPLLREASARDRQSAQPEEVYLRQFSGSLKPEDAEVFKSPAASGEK

pIC50 [1] | remaining activity at 37.5 µM [2] [%] | Compound
8.48 | 12 | Cc1cc2c(NC(=O)N[C@@H]3CC[C@@H](c4ccccc4F)C3)c(F)ccc2cn1 [Example 82, 1-(6-fluoro-3-methylisoquinolin-5-yl)-3-[(1R,3R)-3-(2-fluorophenyl)cyclopentyl]urea]
8.28 | 48 | Cc1cc2c(NC(=O)N[C@H]3CC[C@@H](c4ccccc4F)C3)c(F)ccc2cn1 [Example 83, 1-(6-fluoro-3-methylisoquinolin-5-yl)-3-[(1S,3R)-3-(2-fluorophenyl)cyclopentyl]urea]
8.27 | 13 | Cc1cc2c(NC(=O)N[C@@H]3CC[C@@H](c4cccc(F)c4)C3)c(F)ccc2cn1 [Example 84, 1-(6-fluoro-3-methylisoquinolin-5-yl)-3-[(1R,3R)-3-(3-fluorophenyl)cyclopentyl]urea]
8.05 | 21 | Cc1cc2c(NC(=O)N[C@H]3CC[C@@H](c4cccc(F)c4)C3)c(F)ccc2cn1 [Example 85, 1-(6-fluoro-3-methylisoquinolin-5-yl)-3-[(1S,3R)-3-(3-fluorophenyl)cyclopentyl]urea]
7.10 | 0 | O=C(Nc1cccc2c1C[C@@H](O)C2)N[C@@H]1CC[C@@H](c2cccc(F)c2)C1 [Example 86, 1-[(1R,3R)-3-(3-fluorophenyl)cyclopentyl]-3-[(2S)-2-hydroxy-2,3-dihydro-1H-inden-4-yl]urea]
6.61 | 17 | O=C(Nc1cccc2c1C[C@@H](O)C2)N[C@H]1CC[C@@H](c2cccc(F)c2)C1 [Example 87, 1-[(1S,3R)-3-(3-fluorophenyl)cyclopentyl]-3-[(2S)-2-hydroxy-2,3-dihydro-1H-inden-4-yl]urea]
7.70 | 16 | O=C(Nc1cccc2c1C[C@@H](O)C2)N[C@@H]1CC[C@@H](c2ccccc2F)C1 [Example 88, 1-[(1R,3R)-3-(2-fluorophenyl)cyclopentyl]-3-[(2S)-2-hydroxy-2,3-dihydro-1H-inden-4-yl]urea]
7.06 | 15 | O=C(Nc1cccc2c1C[C@@H](O)C2)N[C@H]1CC[C@@H](c2ccccc2F)C1 [Example 89, 1-[(1S,3R)-3-(2-fluorophenyl)cyclopentyl]-3-[(2S)-2-hydroxy-2,3-dihydro-1H-inden-4-yl]urea]
6.96 | 54 | O=C(Nc1cccc2c1C[C@H](O)C2)N[C@@H]1CC[C@@H](c2cccc(F)c2)C1 [Example 90, 1-[(1R,3R)-3-(3-fluorophenyl)cyclopentyl]-3-[(2R)-2-hydroxy-2,3-dihydro-1H-inden-4-yl]urea]
6.47 | 63 | O=C(Nc1cccc2c1C[C@H](O)C2)N[C@H]1CC[C@@H](c2cccc(F)c2)C1 [Example 91, 1-[(1S,3R)-3-(3-fluorophenyl)cyclopentyl]-3-[(2R)-2-hydroxy-2,3-dihydro-1H-inden-4-yl]urea]
7.10 | 66 | O=C(Nc1cccc2c1C[C@H](O)C2)N[C@@H]1CC[C@@H](c2ccccc2F)C1 [Example 92, 1-[(1R,3R)-3-(2-fluorophenyl)cyclopentyl]-3-[(2R)-2-hydroxy-2,3-dihydro-1H-inden-4-yl]urea]
7.03 | 55 | O=C(Nc1cccc2c1C[C@H](O)C2)N[C@H]1CC[C@@H](c2ccccc2F)C1 [Example 93, 1-[(1S,3R)-3-(2-fluorophenyl)cyclopentyl]-3-[(2R)-2-hydroxy-2,3-dihydro-1H-inden-4-yl]urea]
7.85 | 46 | CN1C(=O)CCc2c(NC(=O)N[C@@H]3CC[C@H](c4ccccc4)C3)cccc21 [Example 94, 1-(1-methyl-2-oxo-1,2,3,4-tetrahydroquinolin-5-yl)-3-[(1R,3S)-3-phenylcyclopentyl]urea]
